Experimental data reported in patent EP4632836A1, “BATTERIES FOR OPERATION ACROSS TEMPERATURES AND RELATED METHODS” (Massachusetts Institute of Technology, priority 2024, dated 2025).

Assay: Electrode soaking test in electrolyte (coloration of electrolyte)
Format: physicochemical
Settings: electrodes with 90 wt.% of TAQ soaked in 2 mL of 1 M LiTFSI in DOL/DME (1/1 vol.%), -20 °C to 70 °C, 24 hours; no coloration of electrolyte
Source text: The high-temperature performance of organic cathode materials for LIBs depends on the solubility of the active materials in organic electrolytes as dissolution leads to rapid capacity decay, dramatically reducing the cycling lifetime. On the other hand, the performance of LIBs at low temperatures is heavily dependent on the charge transport and transfer resistance, as well as the solid-state Li^+ diffusion resistance of the electrode. The solubility of TAQ electrodes and deeply lithiated TAQ (Lix-TAQ, 3<x<4) electrodes in a commercially available electrolyte (1 M LiTFSI in DOL/DME (1/1 vol.%)) under various temperatures was evaluated (FIGS. 24C and 31). […] The electrodes were soaked in 2 mL of electrolyte, and kept under various temperatures ranging from -20 °C to 70 °C for 24 hours. […] This insolubility stems from strong intermolecular hydrogen bonding between TAQ molecules and interlayer π- π stacking, which both persist even upon deep lithiation.

- solubility of electrodes: complete insolubility
Compound: Nc1c(N)c(=O)c2[nH]c3c(=O)c(N)c(N)c(=O)c3[nH]c2c1=O [TAQ, bis-tetraaminobenzoquinone]
